Experiment [1] concerns the target T1, AXL (Homo sapiens, UniProt P30530).
T1 construct: endogenous in cells; host or cells: A-172 glioblastoma cells (ATCC #CRL-1620)
T1 sequence (P30530 26-894): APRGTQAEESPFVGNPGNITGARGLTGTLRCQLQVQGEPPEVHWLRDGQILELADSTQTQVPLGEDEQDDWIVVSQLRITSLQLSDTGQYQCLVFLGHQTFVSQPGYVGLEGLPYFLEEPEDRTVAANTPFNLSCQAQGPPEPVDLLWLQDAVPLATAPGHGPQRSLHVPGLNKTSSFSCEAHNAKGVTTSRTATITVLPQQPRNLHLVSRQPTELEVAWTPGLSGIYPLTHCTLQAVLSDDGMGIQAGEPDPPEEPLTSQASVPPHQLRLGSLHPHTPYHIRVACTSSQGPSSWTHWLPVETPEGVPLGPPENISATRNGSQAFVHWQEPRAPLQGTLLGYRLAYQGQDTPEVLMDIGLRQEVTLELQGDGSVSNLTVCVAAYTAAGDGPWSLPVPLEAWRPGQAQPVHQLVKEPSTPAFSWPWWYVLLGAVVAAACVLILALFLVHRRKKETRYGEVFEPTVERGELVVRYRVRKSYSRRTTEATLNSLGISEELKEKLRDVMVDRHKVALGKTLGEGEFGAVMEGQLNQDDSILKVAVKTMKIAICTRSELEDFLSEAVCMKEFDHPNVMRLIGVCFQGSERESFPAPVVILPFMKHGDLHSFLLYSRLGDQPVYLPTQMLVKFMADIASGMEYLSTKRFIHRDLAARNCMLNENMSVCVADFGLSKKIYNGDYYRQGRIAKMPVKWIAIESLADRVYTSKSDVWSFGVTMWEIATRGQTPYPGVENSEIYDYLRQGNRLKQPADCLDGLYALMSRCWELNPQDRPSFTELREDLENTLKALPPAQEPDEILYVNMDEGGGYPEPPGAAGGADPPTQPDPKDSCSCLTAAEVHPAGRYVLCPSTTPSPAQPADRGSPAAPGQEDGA
Description: AXL autophosphorylation ELISA in A-172 cells. Format: cell-based. The settings on record: Table 3 Cellular Activities, Gas6-stimulated, phospho-AXL ELISA. As for the experimental part: A-172 glioblastoma cells (ATCC #CRL-1620) were seeded at 2.5×10^5 cells/well onto 24-well plates (Greiner #662165), in DMEM (Thermo Fisher #11995-040) containing 10% FBS (Thermo Fisher #26140-079), 1% MEM NEAA (Thermo Fisher #11140-050), 1% GlutaMax (Thermo Fisher #35050-061), and 1% Penicillin Streptomycin (Thermo Fisher #15140-122). A-172 cells were incubated at 37° C., 5% CO2 for 24 h and then starved for 24 h in serum-free medium. Test compounds were serially diluted to produce an 8-point dose curve in fresh serum-free medium to a final concentration of 0.3% DMSO (vehicle) and added to the cells and incubated for 1 h. Cells were then stimulated with 1 μg/mL recombinant human Gas6 (R&D Systems #885-GSB-500) for 15 min, washed with cold PBS, and immediately lysed with 150 μL of cold 1× lysis buffer [20 mM Tris, 137 mM sodium chloride, 2 mM EDTA, 10% glycerol, 1% NP-40 alternative, 1 mM activated sodium orthovanadate, 1 mM PefaBloc SC (Sigma-Aldrich #11429868001), protease/phosphatase inhibitor tablet (Thermo Fisher #A32959)]. Lysates were collected and 100 μL/well added into the human phospho-AXL DuoSet IC ELISA (R&D Systems #DYC2228-2). Assay was performed according to manufacturer's instructions and sample phospho-AXL concentrations were extrapolated using human phospho-AXL control (R&D Systems #841645) as a standard. Positive control wells (100% activity) contained Gas6-stimulated, DMSO-treated cell lysates. Negative control wells (0% activity) contained Gas6-stimulated, reference inhibitor-treated cell lysates. IC50 values were calculated by nonlinear regression analysis using a 4-parameter logistic curve fit in ActivityBase XE (IDBS).

The target of experiment [2] is Met (Homo sapiens, UniProt P08581). Description: Met autophosphorylation ELISA in PC-3 cells. Format: cell-based. Details: endogenous in cells; host or cells: PC-3 prostate cancer cells (ATCC #CRL-1435). The settings on record: Table 3 Cellular Activities, HGF-stimulated, phospho-Met ELISA, read-out: c-Met IC50. In a few lines:
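Serum-starved (3 h) PC-3 cells pre-incubated 1 h with compound (8-point dose curve, 0.3% DMSO), then stimulated with 100 ng/mL recombinant human HGF for 10 min. Lysate phospho-Met (panTyr) measured by sandwich ELISA; IC50 from 4-parameter logistic fit, normalised to DMSO (100%) and reference-inhibitor (0%) controls.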
(In an ELISA, binding on a coated surface is turned into a signal by an enzyme label.)

Structures are written as SMILES. Structures can show the parent of a compound that is named as a salt.

Chain of Met (P08581 25-1390): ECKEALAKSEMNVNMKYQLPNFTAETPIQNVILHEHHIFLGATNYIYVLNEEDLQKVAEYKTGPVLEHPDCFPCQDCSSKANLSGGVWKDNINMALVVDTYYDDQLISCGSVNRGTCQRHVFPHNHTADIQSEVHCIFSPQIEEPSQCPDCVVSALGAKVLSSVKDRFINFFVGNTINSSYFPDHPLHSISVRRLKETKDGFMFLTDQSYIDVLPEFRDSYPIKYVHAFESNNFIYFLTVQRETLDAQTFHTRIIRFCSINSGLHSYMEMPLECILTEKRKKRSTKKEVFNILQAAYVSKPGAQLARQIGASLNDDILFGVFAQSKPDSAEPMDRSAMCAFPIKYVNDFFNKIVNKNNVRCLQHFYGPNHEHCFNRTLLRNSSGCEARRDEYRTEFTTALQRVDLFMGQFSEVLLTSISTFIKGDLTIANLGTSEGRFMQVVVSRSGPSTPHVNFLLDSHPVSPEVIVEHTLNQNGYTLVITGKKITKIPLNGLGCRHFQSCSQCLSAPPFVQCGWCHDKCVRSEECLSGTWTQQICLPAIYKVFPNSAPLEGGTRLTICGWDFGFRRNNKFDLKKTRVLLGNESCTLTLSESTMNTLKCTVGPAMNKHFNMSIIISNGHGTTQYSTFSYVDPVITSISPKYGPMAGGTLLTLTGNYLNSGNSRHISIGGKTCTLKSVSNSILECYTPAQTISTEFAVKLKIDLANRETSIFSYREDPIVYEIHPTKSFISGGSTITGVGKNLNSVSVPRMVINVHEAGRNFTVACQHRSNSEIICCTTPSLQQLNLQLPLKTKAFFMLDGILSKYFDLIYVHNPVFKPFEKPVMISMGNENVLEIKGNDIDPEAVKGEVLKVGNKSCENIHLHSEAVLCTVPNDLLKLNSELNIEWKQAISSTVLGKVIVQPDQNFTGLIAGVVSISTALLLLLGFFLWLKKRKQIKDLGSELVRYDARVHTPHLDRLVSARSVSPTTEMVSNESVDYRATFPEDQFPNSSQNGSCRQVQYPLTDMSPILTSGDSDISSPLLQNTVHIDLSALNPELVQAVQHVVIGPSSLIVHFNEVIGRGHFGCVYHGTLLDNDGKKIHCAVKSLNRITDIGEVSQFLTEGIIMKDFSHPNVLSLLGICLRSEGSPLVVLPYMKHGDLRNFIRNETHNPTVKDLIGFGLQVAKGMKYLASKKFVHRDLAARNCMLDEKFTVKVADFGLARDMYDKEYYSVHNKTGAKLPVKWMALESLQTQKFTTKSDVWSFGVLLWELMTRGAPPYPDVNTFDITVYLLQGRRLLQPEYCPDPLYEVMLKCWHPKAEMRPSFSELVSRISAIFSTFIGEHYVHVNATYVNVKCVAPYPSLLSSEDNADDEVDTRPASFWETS

A word on the IC50: it is the point on the concentration scale where inhibition reaches its midpoint. As for `COc1cc2nccc(Oc3ccc(NC(=O)c4c(C)ncc(-c5cccnc5)c4O)cc3F)c2nc1OC` [Compound 228, N-[4-[(6,7-Dimethoxy-1,5-naphthyridin-4-yl)oxy]-3-fluorophenyl]-4-hydroxy-2-methyl-5-pyridin-3-ylpyridine-3-carboxamide], the IC50 in experiment [1] and in experiment [2] was at most 100 nM throughout.
For the compound `COc1cc2nccc(Oc3ccc(NC(=O)c4cccn(-c5ccncc5)c4=O)cc3F)c2nc1OC` [Compound 229, N-[4-[(6,7-Dimethoxy-1,5-naphthyridin-4-yl)oxy]-3-fluorophenyl]-2-oxo-1-pyridin-4-ylpyridine-3-carboxamide], the IC50 in experiment [1] and in experiment [2] was at most 100 nM in each case.
`COc1cc2nccc(Oc3ccc(NC(=O)c4ccc(C)n(-c5ccnc(C)c5)c4=O)cc3F)c2nc1OC` [Compound 230, N-[4-[(6,7-Dimethoxy-1,5-naphthyridin-4-yl)oxy]-3-fluorophenyl]-6-methyl-1-(2-methylpyridin-4-yl)-2-oxopyridine-3-carboxamide]: the IC50 in experiment [1] and in experiment [2] was at most 100 nM throughout.
Turning to `COc1cc2nccc(Oc3ccc(NC(=O)c4ccc(C)n(-c5cc[n+]([O-])cc5)c4=O)cc3F)c2nc1OC` [Compound 231, N-[4-[(6,7-Dimethoxy-1,5-naphthyridin-4-yl)oxy]-3-fluorophenyl]-6-methyl-1-(1-oxidopyridin-1-ium-4-yl)-2-oxopyridine-3-carboxamide], the IC50 in experiment [1] and in experiment [2] was at most 100 nM throughout.
Regarding `COc1cc2nccc(Oc3ccc(NC(=O)c4ccc(C)n(-c5ccnc(O)c5)c4=O)cc3F)c2nc1OC` [Compound 232, N-[4-[(6,7-Dimethoxy-1,5-naphthyridin-4-yl)oxy]-3-fluorophenyl]-1-(2-hydroxypyridin-4-yl)-6-methyl-2-oxopyridine-3-carboxamide], the IC50 in experiment [1] and in experiment [2] was at most 100 nM each time.
`COc1cc2nccc(Oc3ccc(NC(=O)c4ccc(C)n(-c5ccnc(F)c5)c4=O)cc3F)c2nc1OC` [Compound 233, N-[4-[(6,7-Dimethoxy-1,5-naphthyridin-4-yl)oxy]-3-fluorophenyl]-1-(2-fluoropyridin-4-yl)-6-methyl-2-oxopyridine-3-carboxamide]: the IC50 in experiment [1] and in experiment [2] was at most 100 nM in each case.
`COc1cc2nccc(Oc3ccc(NC(=O)c4ccc(C)n(-c5cccnn5)c4=O)cc3F)c2nc1OC` [Compound 234, N-[4-[(6,7-Dimethoxy-1,5-naphthyridin-4-yl)oxy]-3-fluorophenyl]-6-methyl-2-oxo-1-pyridazin-3-ylpyridine-3-carboxamide]: the IC50 in experiment [1] and in experiment [2] was at most 100 nM throughout.
Consider `COc1cc2nccc(Oc3ccc(NC(=O)c4cc(C(C)=O)c(C)n(-c5ccoc5)c4=O)cc3F)c2nc1OC` [Compound 235, 5-Acetyl-N-[4-[(6,7-dimethoxy-1,5-naphthyridin-4-yl)oxy]-3-fluorophenyl]-1-(furan-3-yl)-6-methyl-2-oxopyridine-3-carboxamide], for which the 50% inhibitory concentration (IC50) in experiment [1] and in experiment [2] was at most 100 nM each time.
`COc1cc2nccc(Oc3ccc(NC(=O)c4cc(C(C)=O)c(C)n(-c5ccco5)c4=O)cc3F)c2nc1OC` [Compound 236, 5-Acetyl-N-[4-[(6,7-dimethoxy-1,5-naphthyridin-4-yl)oxy]-3-fluorophenyl]-1-(furan-2-yl)-6-methyl-2-oxopyridine-3-carboxamide]: the IC50 is at most 100 nM in experiment [1] and 300 to 1000 nM in experiment [2].
On to `COc1cc2nccc(Oc3ccc(NC(=O)c4cc(C(C)=O)c(C)n(-c5ccco5)c4=O)cc3)c2nc1OC` [Compound 237, 5-Acetyl-N-[4-[(6,7-dimethoxy-1,5-naphthyridin-4-yl)oxy]phenyl]-1-(furan-2-yl)-6-methyl-2-oxopyridine-3-carboxamide], for which the values for the IC50 in experiment [1] and in experiment [2] were at most 100 nM and 300 to 1000 nM, respectively.
`COc1cnc2c(Oc3ccc(NC(=O)c4cc(C(C)=O)c(C)n(-c5ccco5)c4=O)cc3F)ccnc2c1` [Compound 238, 5-Acetyl-N-[3-fluoro-4-[(7-methoxy-1,5-naphthyridin-4-yl)oxy]phenyl]-1-(furan-2-yl)-6-methyl-2-oxopyridine-3-carboxamide]: the IC50 in experiment [1] lay in the range of 100 to 300 nM; in experiment [2], 300 to 1000 nM.
Take `COc1cnc2c(Oc3ccc(NC(=O)c4cc(C(C)=O)c(C)n(-c5ccoc5)c4=O)cc3F)ccnc2c1` [Compound 240, 5-Acetyl-N-[3-fluoro-4-[(7-methoxy-1,5-naphthyridin-4-yl)oxy]phenyl]-1-(furan-3-yl)-6-methyl-2-oxopyridine-3-carboxamide]: the figures for the half-inhibitory concentration (IC50) in experiment [1] and in experiment [2] were at most 100 nM and 300 to 1000 nM, respectively.
The corresponding values for `CCOc1ccn(-c2ccc(F)cn2)c(=O)c1C(=O)Nc1ccc(Oc2ccnc3cc(OC)c(OC)nc23)c(F)c1` [Compound 243, N-[4-[(6,7-dimethoxy-1,5-naphthyridin-4-yl)oxy]-3-fluorophenyl]-4-ethoxy-1-(5-fluoropyridin-2-yl)-2-oxopyridine-3-carboxamide] are at most 100 nM and at most 100 nM.
The corresponding values for `CCOc1ccn(-c2ccc(F)cn2)c(=O)c1C(=O)Nc1ccc(Oc2ccnc3cc(OC)c(OC)nc23)cc1` [Compound 244, N-[4-[(6,7-Dimethoxy-1,5-naphthyridin-4-yl)oxy]phenyl]-4-ethoxy-1-(5-fluoropyridin-2-yl)-2-oxopyridine-3-carboxamide] are at most 100 nM and at most 100 nM.
On the same counts, the results for `COc1cc2nccc(Oc3ccc(NC(=O)c4c(C)cc(C)n(-c5ccc(F)cn5)c4=O)cc3)c2nc1OC` [Compound 245, N-[4-[(6,7-Dimethoxy-1,5-naphthyridin-4-yl)oxy]phenyl]-1-(5-fluoropyridin-2-yl)-4,6-dimethyl-2-oxopyridine-3-carboxamide] are at most 100 nM and at most 100 nM.
Regarding `COc1cc2nccc(Oc3ccc(NC(=O)c4nccn(-c5ccc(F)cn5)c4=O)cc3F)c2nc1OC` [Compound 246, N-[4-[(6,7Dimethoxy-1,5-naphthyridin-4-yl)oxy]-3-fluorophenyl]-4-(5-fluoropyridin-2-yl)-3-oxopyrazine-2-carboxamide], the half-maximal inhibitory concentration (IC50) in experiment [1] and in experiment [2] was at most 100 nM throughout.
Regarding `COc1cc2nccc(Oc3ccc(NC(=O)c4cccn(-c5cc[n+]([O-])cc5)c4=O)cc3F)c2nc1OC` [Compound 247, N-[4-[(6,7-Dimethoxy-1,5-naphthyridin-4-yl)oxy]-3-fluorophenyl]-1-(1-oxidopyridin-1-ium-4-yl)-2-oxopyridine-3-carboxamide hydrochloride], the IC50 in experiment [1] was 300 to 1000 nM; in experiment [2] it was at most 100 nM.
On to `COc1cc2nccc(Oc3ccc(NC(=O)c4cccn(-c5ccnc(O)c5)c4=O)cc3F)c2nc1OC` [Compound 248, N-[4-[(6,7-Dimethoxy-1,5-naphthyridin-4-yl)oxy]-3-fluorophenyl]-1-(2-hydroxypyridin-4-yl)-2-oxopyridine-3-carboxamide hydrochloride], for which the values for the half-maximal inhibitory concentration (IC50) in experiment [1] and in experiment [2] were 300 to 1000 nM and at most 100 nM, respectively.

Values taken from US20230151003A1, “COMPOUNDS AND METHODS OF USE” (Exelixis, Inc., priority 2020, published 2023).
